Like-named read-outs stand apart in the source and are kept apart here.
What was measured:
THR-β = target: T1, THR-β (Homo sapiens, UniProt P10828); experiment: Test of the binding ability of the compound to TRβ (TRβ LBD/RXR, biotin-SRC2-2 co-activating peptide, 665/615 nm fluorescence ratio); assay type: biochemical
T1 construct: TRB LBD, GST purchased from Thermo Fisher; purchased Thermo Fisher PV4762
Experimental: 1. Main experimental materials and instruments:
Biotin-SRC2-2 co-activating peptide purchased from Sangon Biotech (Shanghai) Co., Ltd.
TRB LBD, GST purchased from Thermo Fisher (product No. PV4762)
Europium-conjugated anti-glutathione antibody purchased from Cisbio (product No. 61GSTKLB)
Streptavidin-D2 purchased from Cisbio (product No. 610SADAB)
(§1) 4.2 The activity percentage was calculated as follows: […]
(§2) RatioCompound: Average of the relative ratios of the compound wells of the embodiments
(§3) RatioPositive: Average of the relative ratios of all positive control wells.
(§4) RatioBlank: Average of the relative ratios of all negative control wells.
(§5) EC50 was calculated by fitting the relationship between activity (%) and compound logarithmic concentration with Graphpad 5.0 by a nonlinear regression method.
(§6) Y=Bottom+ (top-bottom)/(1+10^((LogEC50−X)*slope))
(§7) X: Compound logarithmic concentration Y: Percentage activity

[1] = Drug metabolism experiment on prodrug in SD rats: plasma pharmacokinetic parameters; assay type: in vivo; conditions: plasma; for AUC(0-inf) / AUC(0-t) / Tmax / half-life / Cmax: male, Sprague-Dawley (SD), rat, po, 3 mg/kg
Experimental: (§8) Test 3: Drug metabolism experiment on prodrug in SD rats
(§9) In the experiment, […] of 12 male SD rats having similar body weights were selected and orally administered compound 9, compound 10, and the control drug VK2809 (the prodrug of MB07444, structured as shown below) at a dose of 3 mg/kg at a single time, respectively, and blood and liver samples were collected at different time points.
(§10) Solutions of compound 9/compound 10 and VK2809 with a final concentration of 0.6 mg/mL were respectively prepared, and the ratio between the solvents used for the preparation was PEG400: pure water =50:50 (v/v).
(§11) No randomization was performed. The weights of the animals were measured before administration, and healthy animals with similar body weights were selected for inclusion in the experiment. The oral dose was 3 mg/kg.
(§12) At least 0.2 mL of blood was collected from the tail vein or jugular vein, and heparin sodium was used as the anticoagulant.
15 min, 30 min, 1 h, 2 h, 4 h, 6 h, 8 h, 24 h after administration.
(§13) After being collected, a blood sample was placed in a marked ice-water bath centrifuge tube, plasma was quickly separated by centrifugation under centrifugation conditions: 3500 rpm, 10 minutes, and 4° C., and the plasma was stored under −40° C. for testing.
(§14) Q TRAP6500 mass spectrometer with ESI source was used to perform negative ion MRM scanning. An LC-MS/MS analysis method was used to detect the contents of compound 9, compound 10 and its active metabolite 1, VK2809 and its active metabolite MB07444 in the plasma and liver. The metabolic kinetics data analysis software WinNonlin 7.0 was used to calculate the concentration data of plasma, and the non-compartmental model (NCA) method was used to calculate the pharmacokinetic parameters.

THR-α = target: T2, THR-α (Homo sapiens, UniProt P10827); experiment: Test of the binding ability of the compound to TRα (TRα LBD/RXRα, biotin-SRC2-2 co-activating peptide, 665/615 nm fluorescence ratio); assay type: biochemical
T2 construct: TR-a LBD, GST purchased from Thermo Fisher; purchased Thermo Fisher PV4762
T2 sequence (P10827 163-410 isoform P10827-2 limits assumed, other chains not shown): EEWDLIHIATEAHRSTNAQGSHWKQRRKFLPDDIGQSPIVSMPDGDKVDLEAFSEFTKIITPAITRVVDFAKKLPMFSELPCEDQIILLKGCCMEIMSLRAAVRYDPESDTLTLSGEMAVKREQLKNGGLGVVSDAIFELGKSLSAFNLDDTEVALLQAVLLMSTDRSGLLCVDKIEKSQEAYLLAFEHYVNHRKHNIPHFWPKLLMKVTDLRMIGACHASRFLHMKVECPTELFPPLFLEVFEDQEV
T2 sequence (P19793 whole entry partner, other chains not shown, the tested form may be a part): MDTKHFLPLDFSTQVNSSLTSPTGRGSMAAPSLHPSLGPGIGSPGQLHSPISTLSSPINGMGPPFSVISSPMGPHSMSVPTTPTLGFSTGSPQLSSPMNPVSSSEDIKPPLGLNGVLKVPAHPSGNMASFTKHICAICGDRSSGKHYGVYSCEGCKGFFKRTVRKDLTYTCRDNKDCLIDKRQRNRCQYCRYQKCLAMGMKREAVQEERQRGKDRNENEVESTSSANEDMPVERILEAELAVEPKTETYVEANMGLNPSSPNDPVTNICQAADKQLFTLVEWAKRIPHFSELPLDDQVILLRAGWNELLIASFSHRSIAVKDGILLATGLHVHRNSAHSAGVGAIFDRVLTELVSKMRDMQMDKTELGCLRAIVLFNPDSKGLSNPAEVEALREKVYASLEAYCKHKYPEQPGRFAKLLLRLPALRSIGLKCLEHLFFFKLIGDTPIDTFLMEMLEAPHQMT
Experimental: as §1, §2, §3, §4, §5, §6, §7

[2] = Drug metabolism experiment on prodrug in SD rats: concentration in liver compared with blood; assay type: in vivo; conditions: for Kp at 1 h / Kp at 4 h / Kp at 8 h / Kp at 24 h / concentration at 1 h / concentration at 4 h / concentration at 8 h / concentration at 24 h: male, rat, po, 3 mg/kg, SD rats; for Kp at 1 h / Kp at 4 h / Kp at 8 h / Kp at 24 h: read-out: Liver-to-blood ratio
Experimental: as §8, §9, §10, §11, §12, §13
After the liver sample was collected, its surface was washed with normal saline, dried with medical gauze, placed in a labeled small ziplock bag, and stored under −40° C. for testing.
as §14
The parameters of concentration in the livers of the SD rats and a comparison with the concentration in plasma are shown in Table 3 below: […]

[3] = activity relative to positive control
[4] = Sprague-Dawley (SD), liver / plasma (heading prints blood), oral 3 mg/kg Compound 9
[5] = Sprague-Dawley (SD), liver / plasma (heading prints blood), oral 3 mg/kg Compound 10
[6] = Sprague-Dawley (SD), liver, oral 3 mg/kg Compound 9, read-out: Ct Liver
[7] = Sprague-Dawley (SD), liver, oral 3 mg/kg Compound 10, read-out: Ct Liver
[8] = Sprague-Dawley (SD), plasma (heading prints blood), oral 3 mg/kg Compound 10, read-out: Ct Blood
[9] = Sprague-Dawley, plasma, oral 3 mg/kg Compound 9, read-out: Ct Blood

T1 sequence (P10828 217-461 limits assumed, other chains not shown): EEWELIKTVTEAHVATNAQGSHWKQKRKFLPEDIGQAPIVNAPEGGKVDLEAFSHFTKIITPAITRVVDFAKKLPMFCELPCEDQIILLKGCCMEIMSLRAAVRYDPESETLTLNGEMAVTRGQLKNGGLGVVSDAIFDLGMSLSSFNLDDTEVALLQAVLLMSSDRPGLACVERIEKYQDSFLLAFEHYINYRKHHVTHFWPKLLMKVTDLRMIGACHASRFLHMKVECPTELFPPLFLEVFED
T1 sequence (P28702 whole entry partner, other chains not shown, the tested form may be a part): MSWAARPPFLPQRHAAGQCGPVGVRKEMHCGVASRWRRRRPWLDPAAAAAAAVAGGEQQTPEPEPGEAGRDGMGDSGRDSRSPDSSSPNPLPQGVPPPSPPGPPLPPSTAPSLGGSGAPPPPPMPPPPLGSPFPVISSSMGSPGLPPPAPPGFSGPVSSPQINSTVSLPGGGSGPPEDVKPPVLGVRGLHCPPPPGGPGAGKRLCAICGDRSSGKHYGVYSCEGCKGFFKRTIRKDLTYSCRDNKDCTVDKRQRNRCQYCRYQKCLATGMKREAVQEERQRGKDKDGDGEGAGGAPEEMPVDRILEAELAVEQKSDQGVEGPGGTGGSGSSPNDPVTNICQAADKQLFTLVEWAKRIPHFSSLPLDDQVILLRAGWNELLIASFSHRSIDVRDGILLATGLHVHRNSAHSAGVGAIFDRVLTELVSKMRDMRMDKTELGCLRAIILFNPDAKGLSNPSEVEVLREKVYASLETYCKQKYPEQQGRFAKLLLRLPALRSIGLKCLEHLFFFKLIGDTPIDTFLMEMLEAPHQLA

Question: Which EC50 (THR-β) does the source give for `Cc1cc(OCP(=O)(O)O)cc(C)c1Cc1ccc(O)c2c1CCC2(C)C` [Compound 1, ((4-((7-hydroxy-1,1-dimethyl-2,3-dihydro-1H-indene-4-position)methyl)-3,5-dimethylphenoxy)methyl) phosphoric acid] here?
Answer: 12 nM

Question: What about the Emax (THR-β; [3]) of the same compound?
Answer: 104%

Question: What about the “α/β selectivity (multiple)” value (THR-β; calculated after being standardized with T3) of the same compound?
Answer: 7.0 multiple

Question: And the “activity for THR-β compared with MB07444” value (THR-β; in words)?
Answer: much higher than that of the contrast compound MB07444

Question: And the AUC(0-inf) ([1]; oral 3 mg/kg Compound 9)?
Answer: 1350 ng·h/mL

Question: What about the AUC(0-t) ([1]; oral 3 mg/kg Compound 9) of the same compound?
Answer: 1290 ng·h/mL

Question: And the Tmax ([1]; oral 3 mg/kg Compound 9)?
Answer: 4.67 h

Question: And the half-life ([1]; oral 3 mg/kg Compound 9)?
Answer: 4.82 h

Question: What about the AUC(0-inf) ([1]; oral 3 mg/kg Compound 10) of the same compound?
Answer: 613 ng·h/mL

Question: And the AUC(0-t) ([1]; oral 3 mg/kg Compound 10)?
Answer: 586 ng·h/mL

Question: What about the Tmax ([1]; oral 3 mg/kg Compound 10) of the same compound?
Answer: 6.67 h

Question: And the half-life ([1]; oral 3 mg/kg Compound 10)?
Answer: 4.59 h

Question: What about the Cmax ([1]; oral 3 mg/kg Compound 9, read-out: Cmax) of the same compound?
Answer: 134 ng/mL

Question: And the Cmax ([1]; oral 3 mg/kg Compound 10, read-out: Cmax)?
Answer: 45.1 ng/mL

Question: What about the Kel ([1]; oral 3 mg/kg Compound 9) of the same compound?
Answer: 0.147 h⁻¹

Question: And the Kel ([1]; oral 3 mg/kg Compound 10)?
Answer: 0.154 h⁻¹

Question: What about the EC50 (THR-α) of the same compound?
Answer: 41 nM

Question: And the Emax (THR-α; [3])?
Answer: 96.4%

Question: And the “absolute concentration of active metabolite in the liver compared with control drug VK2809” value ([2]; after prodrug compound 9, in words)?
Answer: higher than that of the control drug VK2809

Question: What about the “liver-to-blood ratio compared with control drug” value ([2]; after prodrug compound 10, in words) of the same compound?
Answer: significantly higher than that of the control drug

Question: And the “absolute concentration of active metabolite in the liver compared with MB07444 from VK2809” value ([2]; after prodrug compound 10, same prodrug dose, in words)?
Answer: at least three times that of the active metabolite drug MB07444

Question: And the Kp at 1 h [2, 4]?
Answer: 20.8

Question: And the Kp at 1 h [2, 5]?
Answer: 29.1

Question: And the Kp at 4 h [2, 4]?
Answer: 16.2

Question: What about the Kp at 4 h [2, 5] of the same compound?
Answer: 20.6

Question: What about the Kp at 8 h [2, 4] of the same compound?
Answer: 25.5

Question: And the Kp at 8 h [2, 5]?
Answer: 17.7

Question: And the Kp at 24 h [2, 4]?
Answer: 47.1

Question: What about the concentration at 1 h [2, 6] of the same compound?
Answer: 312 ng/g

Question: And the concentration at 1 h [2, 7]?
Answer: 693 ng/g

Question: What about the concentration at 4 h [2, 6] of the same compound?
Answer: 1560 ng/g

Question: And the concentration at 4 h [2, 7]?
Answer: 2580 ng/g

Question: What about the concentration at 8 h [2, 6] of the same compound?
Answer: 762 ng/g

Question: What about the concentration at 8 h [2, 7] of the same compound?
Answer: 1710 ng/g

Question: What about the concentration at 24 h [2, 6] of the same compound?
Answer: 396 ng/g

Question: What about the concentration at 1 h [2, 8] of the same compound?
Answer: 5.4 ng/g

Question: And the concentration at 4 h [2, 8]?
Answer: 28.4 ng/g

Question: And the concentration at 8 h [2, 8]?
Answer: 43.6 ng/g

Question: What about the concentration at 24 h [2, 8] of the same compound?
Answer: 3.83 ng/g

Question: What about the concentration at 24 h ([2]; Sprague-Dawley, liver, oral 3 mg/kg Compound 10, read-out: Ct Liver) of the same compound?
Answer: 431 ng/g

Question: And the Kp at 24 h ([2]; Sprague-Dawley, liver/plasma, oral 3 mg/kg Compound 10)?
Answer: 121

Question: And the concentration at 1 h [2, 9]?
Answer: 15 ng/g

Question: And the concentration at 4 h [2, 9]?
Answer: 96.3 ng/g

Question: What about the concentration at 8 h [2, 9] of the same compound?
Answer: 29.9 ng/g

Question: What about the concentration at 24 h [2, 9] of the same compound?
Answer: 8.4 ng/g
